Numbers after ± are expanded uncertainties.
Conditions: 298.15 K; for surface tension liquid-gas: Drop volume; for mass density: 101.33 kPa, Liquid

surface tension liquid-gas [mN/m]	mass density [kg/m3]	SMILES
23.08 ± 0.18	802.44 ± 0.73	CCC(C)O (configuration not stated) [butan-2-ol]
24.25 ± 0.15	805.8 ± 0.29	CCCCO [butan-1-ol]
20.3 ± 0.14	780.78 ± 0.65	CC(C)(C)O [2-methylpropan-2-ol]
18.06 ± 0.16	655.07 ± 0.98	CCCCCC [hexane]
22.47 ± 0.15	797.77 ± 0.62	CC(C)CO [2-methyl-1-propanol]

SMILES	surface tension liquid-gas [mN/m]	mass density [kg/m3]
CCCCCl [1-chlorobutane]	23.29 ± 0.18	880.69 ± 0.61
